# ChEMBL document CHEMBL1201862, “PubChem BioAssay data set” (2004)
#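 Tested at 5 concentrations; 48 h exposure; 96-well plates; endpoints linearly interpolated, else capped at highest concentration. GI50: concentration for 50% inhibition of growth.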 Active and inactive are the calls of the source. No stated cut-off is given here; in the data, active = GI50 up to about 1.1 µM and inactive = higher.
# Key:
# Assay in all cases: inhibition of tumour cell growth, NCI panel, 48 h
# [1] = system: HT-29
# [2] = system: OVCAR-8
# [3] = system: OVCAR-3
# [4] = system: DMS-273
# [5] = system: CCRF-CEM
# [6] = system: Malme-3M
# [7] = system: U-251
# [8] = system: OVCAR-5
# [9] = system: OVCAR-4
# [10] = system: SNB-78
# [11] = system: SK-MEL-5
# [12] = system: SK-MEL-2
# [13] = system: KM12
# [14] = system: K562
# [15] = system: NCI-H226
# [16] = system: EKVX
# [17] = system: HOP-92
# [18] = system: HCT-15
# [19] = system: ACHN
# [20] = system: SF-295
# [21] = system: M14
# [22] = system: LOX IMVI
# [23] = system: 786-0
# [24] = system: UACC-257
# [25] = system: RPMI-8226
# [26] = system: SF-539
# [27] = system: NCI-H460
# [28] = system: M19-MEL
# [29] = system: HCT-116
# [30] = system: A498
# [31] = system: UACC-62
# [32] = system: IGROV-1
# [33] = system: SN12C
# [34] = system: CAKI-1
# [35] = system: DLD-1
# [36] = system: SF-268
# [37] = system: A549
# [38] = system: LXFL 529
# [39] = system: UO-31
# [40] = system: HOP-18
# [41] = system: MOLT-4
# [42] = system: SR
# [43] = system: KM-20L2
# [44] = system: RXF 393
# [45] = system: HL-60
# [46] = system: HCC 2998
# [47] = system: DMS-114
# [48] = system: SNB-19
# [49] = system: SW-620
# [50] = system: COLO 205
# [51] = system: SK-OV-3
# [52] = system: XF498
# [53] = system: NCI-H23
# [54] = system: HOP-62
# [55] = system: TK-10
# [56] = system: NCI-H522
# [57] = system: SNB-75
# [58] = system: SK-MEL-28
smiles,measurement,setting,value
O=S1(=O)NN=C(NCc2ccc(Cl)c(Cl)c2)c2ccccc21,GI50,[1],53.8 µM (inactive)
same,GI50,[2],> 100 µM (inactive)
same,GI50,[3],> 100 µM (inactive)
same,GI50,[4],> 100 µM (inactive)
same,GI50,[5],9.16 µM (inactive)
same,GI50,[6],> 100 µM (inactive)
same,GI50,[7],30.2 µM (inactive)
same,GI50,[8],> 100 µM (inactive)
same,GI50,[9],> 100 µM (inactive)
same,GI50,[10],97.5 µM (inactive)
same,GI50,[11],86.9 µM (inactive)
same,GI50,[12],> 100 µM (inactive)
same,GI50,[13],> 100 µM (inactive)
same,GI50,[14],12 µM (inactive)
same,GI50,[15],> 100 µM (inactive)
same,GI50,[16],> 100 µM (inactive)
same,GI50,[17],50.1 µM (inactive)
same,GI50,[18],36 µM
same,GI50,[19],> 100 µM (inactive)
same,GI50,[20],> 100 µM (inactive)
same,GI50,[21],> 100 µM (inactive)
same,GI50,[22],40.2 µM (inactive)
same,GI50,[23],> 100 µM (inactive)
same,GI50,[24],> 100 µM (inactive)
same,GI50,[25],11.5 µM (inactive)
same,GI50,[26],> 100 µM (inactive)
same,GI50,[27],95.3 µM (inactive)
same,GI50,[28],> 100 µM (inactive)
same,GI50,[29],> 100 µM (inactive)
same,GI50,[30],> 100 µM (inactive)
same,GI50,[31],6.56 µM (inactive)
same,GI50,[32],> 100 µM (inactive)
same,GI50,[33],> 100 µM (inactive)
same,GI50,[34],> 100 µM (inactive)
same,GI50,[35],56.9 µM (inactive)
same,GI50,[36],> 100 µM (inactive)
same,GI50,[37],> 100 µM (inactive)
same,GI50,[38],42.2 µM (inactive)
same,GI50,[39],> 100 µM (inactive)
same,GI50,[40],> 100 µM (inactive)
same,GI50,[41],15.1 µM (inactive)
same,GI50,[42],15.6 µM (inactive)
same,GI50,[43],> 100 µM (inactive)
same,GI50,[44],19.8 µM (inactive)
same,GI50,[45],26.5 µM (inactive)
same,GI50,[46],> 100 µM (inactive)
same,GI50,[47],> 100 µM (inactive)
same,GI50,[48],> 100 µM (inactive)
same,GI50,[49],91.2 µM (inactive)
same,GI50,[50],> 100 µM (inactive)
C=CNC(=S)n1nc(-c2ccccc2NC(=O)C(F)(F)F)c(=O)n(C(=S)NC=C)c1=S,GI50,[1],18.6 µM (inactive)
same,GI50,[2],33 µM (inactive)
same,GI50,[3],13.3 µM (inactive)
same,GI50,[4],26.8 µM (inactive)
same,GI50,[51],30.3 µM (inactive)
same,GI50,[5],24.9 µM (inactive)
same,GI50,[6],56.2 µM (inactive)
same,GI50,[7],34.9 µM (inactive)
same,GI50,[8],26.7 µM (inactive)
same,GI50,[9],3.58 µM (inactive)
same,GI50,[52],30.2 µM (inactive)
same,GI50,[10],51.1 µM (inactive)
same,GI50,[53],26.7 µM (inactive)
same,GI50,[11],13.3 µM (inactive)
same,GI50,[54],29.6 µM (inactive)
same,GI50,[12],73.3 µM (inactive)
same,GI50,[13],29.3 µM (inactive)
same,GI50,[55],> 100 µM (inactive)
same,GI50,[14],18.1 µM (inactive)
same,GI50,[15],21.2 µM (inactive)
same,GI50,[16],22.3 µM (inactive)
same,GI50,[17],10.5 µM (inactive)
same,GI50,[18],16.4 µM
same,GI50,[19],24.4 µM (inactive)
same,GI50,[20],19.2 µM (inactive)
same,GI50,[56],11.2 µM (inactive)
same,GI50,[21],34.6 µM (inactive)
same,GI50,[22],31.8 µM (inactive)
same,GI50,[57],26 µM (inactive)
same,GI50,[27],15.1 µM (inactive)
same,GI50,[58],> 100 µM (inactive)
same,GI50,[28],31.8 µM (inactive)
same,GI50,[29],> 100 µM (inactive)
same,GI50,[31],45.8 µM (inactive)
same,GI50,[32],54 µM (inactive)
same,GI50,[33],48.9 µM (inactive)
same,GI50,[34],23.1 µM (inactive)
same,GI50,[35],16.7 µM (inactive)
same,GI50,[36],15.4 µM (inactive)
same,GI50,[38],19.5 µM (inactive)
same,GI50,[39],13.9 µM (inactive)
same,GI50,[41],15.4 µM (inactive)
same,GI50,[42],16.4 µM (inactive)
same,GI50,[44],73.6 µM (inactive)
same,GI50,[46],47.9 µM (inactive)
same,GI50,[47],12.3 µM (inactive)
same,GI50,[48],28.6 µM (inactive)
same,GI50,[49],59.8 µM (inactive)
same,GI50,[50],> 10 µM (inactive)
